Test results as given in ChEMBL document CHEMBL4725303, “New V1a receptor antagonist. Part 1. Synthesis and SAR development of urea derivatives” (Bioorg Med Chem Lett, 2020).

Columns and labels:
Vasopressin V1a receptor [1] = biological target: T1, Vasopressin V1a receptor (Homo sapiens, UniProt P37288); test: Antagonist activity at human V1a receptor expressed in human 1321N1 cells assessed as decrease in Arg8-vasopressin-stimulated calcium flux by fluorometric calcium assay; assay type: functional, cell-based
Target sequence in this assay (P37288 whole entry): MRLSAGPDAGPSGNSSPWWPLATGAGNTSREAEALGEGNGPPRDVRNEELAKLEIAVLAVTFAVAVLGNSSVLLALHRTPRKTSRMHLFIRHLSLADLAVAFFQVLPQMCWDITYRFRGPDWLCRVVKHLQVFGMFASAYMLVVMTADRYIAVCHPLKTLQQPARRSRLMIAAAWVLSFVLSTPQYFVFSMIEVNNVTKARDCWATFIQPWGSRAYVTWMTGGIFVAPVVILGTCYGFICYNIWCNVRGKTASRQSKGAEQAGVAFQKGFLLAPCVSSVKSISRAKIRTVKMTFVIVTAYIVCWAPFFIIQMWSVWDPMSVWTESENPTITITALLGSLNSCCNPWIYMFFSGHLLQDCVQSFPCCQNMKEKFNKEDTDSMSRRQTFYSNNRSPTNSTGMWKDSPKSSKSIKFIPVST

Vasopressin V1a receptor [2] = biological target: T1, Vasopressin V1a receptor; test: Displacement of [3H]AVP from human V1a receptor expressed in […] cells assessed as dissociation constant by radioligand binding assay; assay type: cell-based, 1321N1
Target sequence in this assay (P37288 whole entry): as above

[3] = Metabolic stability in NMRI mouse liver microsomes assessed as intrinsic clearance at 1 uM in presence of NADPH by HPLC-UV analysis; assay type: ADME, Microsome; conditions: read-out: CLH
[4] = Apparent permeability across apical to basolateral side in human Caco-2 cells at 1 uM by HPLC-UV or UHPLC-MS/MS analysis; assay type: ADME, cell-based
[5] = Metabolic stability in Wistar rat liver microsomes assessed as intrinsic clearance at 1 uM in presence of NADPH by HPLC-UV analysis; assay type: ADME, Microsome; conditions: read-out: CLH
[6] = Metabolic stability in human liver microsomes assessed as intrinsic clearance at 1 uM in presence of NADPH by HPLC-UV analysis; assay type: ADME, Microsome; conditions: read-out: CLH
Vasopressin V1a receptor [7] = biological target: T1, Vasopressin V1a receptor; test: Antagonist activity at human V1a receptor expressed in human 1321N1 cells assessed as decrease in Arg8-vasopressin-stimulated calcium flux at 10 uM by fluorometric calcium assay relative to control; assay type: functional, cell-based
Target sequence in this assay (P37288 whole entry, looked up): as the sequence (P37288 whole entry) above

[8] = Apparent permeability across apical to basolateral side in human Caco-2 cells at 10 uM by HPLC-UV or UHPLC-MS/MS analysis; assay type: ADME, cell-based
[9] = Efflux ratio of Apparent permeability across apical to basolateral side in human Caco-2 cells at 10 uM by HPLC-UV or UHPLC-MS/MS analysis; assay type: ADME, cell-based

Row | SMILES | IC50 (Vasopressin V1a receptor [1]) | Ki (Vasopressin V1a receptor [2]) | also measured
1 | Cc1ccccc1N1CCN(C(=O)N2CCNc3cc(Cl)ccc32)CC1 | 80 nM | 4.1 nM | microsomal CLint at 1 µM [3]: 66 µL/min/mg; Papp A→B at 1 µM [4]: 17 ×10⁻⁶ cm/s; microsomal CLint at 1 µM [5]: 265 µL/min/mg; microsomal CLint at 1 µM [6]: 210 µL/min/mg
2 | Cc1ccccc1N1CCN(C(=O)c2ccc(Cl)c(NC(=O)c3cccs3)c2)CC1 | 800 nM | 170 nM | –
3 | Cc1ccccc1N1CCN(C(=O)C2CN(C(=O)C3CCCC3)Cc3cc(Cl)ccc32)CC1 (racemic) | 35 nM | 6 nM | microsomal CLint at 1 µM [3]: 341 µL/min/mg; Papp A→B at 1 µM [4]: 4.3 ×10⁻⁶ cm/s; microsomal CLint at 1 µM [5]: 179 µL/min/mg; microsomal CLint at 1 µM [6]: 188 µL/min/mg
4 | O=C(N1CCC2(CC1)OCc1ccccc12)N1CCNc2cc(Cl)ccc21 | 280 nM | 4 nM | –
5 | Cc1ccccc1N1CCN(C(=O)N2CCNc3ccccc32)CC1 | 2800 nM | 70 nM | –
6 | Cc1ccccc1N1CCN(C(=O)C2CN(C(=O)C(C)C)Cc3cc(Cl)ccc32)CC1 (racemic) | 135 nM | 5 nM | –
7 | Cc1ccccc1N1CCN(C(=O)N2CNCc3cc(Cl)ccc32)CC1 | 40 nM | 3 nM | –
8 | Cc1ccccc1N1CCN(C(=O)N2C[C@H](C(=O)C3CCCC3)Cc3cc(Cl)ccc32)CC1 | 25 nM | 2.3 nM | –
9 | Cc1ccccc1N1CCN(C(=O)C2CN(C(=O)C3CC3)Cc3cc(Cl)ccc32)CC1 (single isomer, unassigned; (-)) | – | 80 nM | –
10 | Cc1ccccc1N1CCN(C(=O)C2CN(C(=O)C3CCCCC3)Cc3cc(Cl)ccc32)CC1 (racemic) | 40 nM | 5 nM | –
11 | Cc1cccnc1N1CCN(C(=O)N2CCNc3cc(Cl)ccc32)[C@H](C)C1 | 750 nM | 70 nM | –
12 | Cc1cccnc1N1CCN(C(=O)N2CCNc3cc(Cl)ccc32)CC1 | 450 nM | 2 nM | –
13 | O=C(N1CCC(N2CCCCC2)CC1)N1CCNc2cc(Cl)ccc21 | – | – | inhibition (Vasopressin V1a receptor [7]): 11%
14 | O=C(N1CCN(c2ncccc2Cl)CC1)N1CCNc2cc(Cl)ccc21 | 170 nM | 6 nM | –
15 | Cc1ccccc1N1CCN(C(=O)C2CN(C(=O)C3CC3)Cc3cc(Cl)ccc32)CC1 (stereo in doubt; (+)-44) | 180 nM | 5 nM | –
16 | Cc1ccccc1N1CCN(C(=O)C2CN(C(=O)C3CCCCC3)Cc3cc(Cl)ccc32)CC1 (single isomer, unassigned; (+)) | 21 nM | 4 nM | –
17 | Cc1ccccc1N1CCN(C(=O)N2CN(C(=O)c3ccccc3)Cc3cc(Cl)ccc32)CC1 | 35 nM | 3 nM | –
18 | Cc1ccccc1N1CCN(C(=O)N2CN(S(C)(=O)=O)Cc3cc(Cl)ccc32)CC1 | 20 nM | 5.3 nM | –
19 | CN(C)CCn1cc(C(=O)N2CCC3(CC2)OCc2ccccc23)c2ccc(Cl)cc21 [RO-5028442] | 2 nM | 5.5 nM | microsomal CLint at 1 µM [3]: 341 µL/min/mg; Papp A→B at 10 µM [8]: 15 ×10⁻⁶ cm/s; efflux ratio at 10 µM [9]: 0.9; microsomal CLint at 1 µM [5]: 130 µL/min/mg; microsomal CLint at 1 µM [6]: 20 µL/min/mg
20 | Cc1ccccc1C1CCN(C(=O)N2CCNc3cc(Cl)ccc32)CC1 | 380 nM | 3 nM | –
21 | Cc1ccccc1N1CCN(C(=O)N2CN(C(=O)C3CC3)Cc3cc(Cl)ccc32)CC1 | 10 nM | 3.3 nM | –
22 | C[C@H]1CN(C(=O)N2CCNc3cc(Cl)ccc32)CCN1c1ccccn1 | 1000 nM | 62 nM | –
23 | Cc1ccccc1N1CCN(C(=O)C2CN(C(=O)C3CCCCC3)Cc3cc(Cl)ccc32)CC1 (stereo in doubt; (-)-47) | 280 nM | 40 nM | –
24 | Cc1ccccc1N1CCN(C(=O)N2CN(C(=O)C(C)C)Cc3cc(Cl)ccc32)CC1 | 11 nM | 2.6 nM | –
25 | C[C@H](NC(=O)[C@@H](CC(=O)N1CCC(N2CCCCC2)CC1)N1C(=O)[C@@H](N2C(=O)OC[C@@H]2c2ccccc2)[C@H]1/C=C/c1ccccc1)c1ccccc1 | – | – | microsomal CLint at 1 µM [3]: 199 µL/min/mg; Papp A→B at 10 µM [8]: 4.7 ×10⁻⁶ cm/s; microsomal CLint at 1 µM [5]: 31 µL/min/mg; microsomal CLint at 1 µM [6]: 156 µL/min/mg
26 | O=C(N1CCN(c2ccccn2)CC1)N1CCNc2cc(Cl)ccc21 | 6800 nM | 160 nM | –

Second part, led by results:

Row | IC50 (Vasopressin V1a receptor [1]) | Ki (Vasopressin V1a receptor [2]) | SMILES | also measured
27 | 390 nM | 5 nM | Cc1ccccc1N1CCN(C(=O)N2CCCCc3cc(Cl)ccc32)CC1 | –
28 | 1400 nM | 13 nM | CC(=O)N1CCN(C(=O)N2CCN(c3ccccc3C)CC2)c2ccc(Cl)cc21 | –
29 | 11 nM | 1 nM | Cc1ccccc1N1CCN(C(=O)N2CN(C(=O)C3CCCC3)Cc3cc(Cl)ccc32)CC1 | –
30 | – | 5 nM | Cc1ccccc1N1CCN(C(=O)N2CN(C(=O)C3CCCCC3)Cc3cc(Cl)ccc32)CC1 | –
31 | – | 310 nM | C[C@@H]1CN(C(=O)N2CCNc3cc(Cl)ccc32)CCN1c1ccccn1 | inhibition (Vasopressin V1a receptor [7]; filed as antagonist): 57%
32 | – | 23 nM | Cc1ccccc1N1CCN(C(=O)N2CN(C(=O)C3(c4ccc(F)cc4)CC3)Cc3cc(Cl)ccc32)CC1 | –
33 | – | 440 nM | CC(=O)N1CCN(C(=O)N2CCN(c3ccccc3C)CC2)c2ccc(F)cc21 | inhibition (Vasopressin V1a receptor [7]; filed as antagonist): 62%
34 | 55 nM | 2 nM | CN1CCN(C(=O)N2CCN(c3ncccc3Cl)CC2)c2ccc(Cl)cc21 | –
35 | 1400 nM | 560 nM | Cc1ccccc1N1CCN(C(=O)N2CCNc3ccc(Cl)cc32)CC1 | –
36 | 300 nM | 7 nM | Cc1ccccc1N1CCN(C(=O)N2CCN(C)c3cc(Cl)ccc32)CC1 | –
37 | 2.4 nM | 0.6 nM | Cc1ccccc1N1CCN(C(=O)N2C[C@@H](C(=O)C3CCCC3)Cc3cc(Cl)ccc32)CC1 | microsomal CLint at 1 µM [3]: 235 µL/min/mg; Papp A→B at 1 µM [4]: 10 ×10⁻⁶ cm/s; microsomal CLint at 1 µM [5]: 170 µL/min/mg; microsomal CLint at 1 µM [6]: 72 µL/min/mg
38 | 8300 nM | 164 nM | O=C(N1CCN(Cc2ccccc2)CC1)N1CCNc2cc(Cl)ccc21 | –
39 | 50 nM | 6 nM | CC(=O)N1Cc2cc(Cl)ccc2N(C(=O)N2CCN(c3ccccc3C)CC2)C1 | microsomal CLint at 1 µM [3]: 324 µL/min/mg; Papp A→B at 10 µM [8]: 39 ×10⁻⁶ cm/s; efflux ratio at 10 µM [9]: 0.7; microsomal CLint at 1 µM [5]: 212 µL/min/mg; microsomal CLint at 1 µM [6]: 88 µL/min/mg
40 | – | 25 nM | Cc1ccccc1N1CCN(C(=O)C2CN(C(=O)C3CC3)Cc3cc(Cl)ccc32)CC1 (racemic) | –
41 | 260 nM | 14 nM | CN1CCN(C(=O)C2CCN(c3ccccn3)CC2)c2ccc(Cl)cc21 | microsomal CLint at 1 µM [3]: 132 µL/min/mg; Papp A→B at 10 µM [8]: 48 ×10⁻⁶ cm/s; efflux ratio at 10 µM [9]: 0.7; microsomal CLint at 1 µM [5]: 404 µL/min/mg; microsomal CLint at 1 µM [6]: 80 µL/min/mg
42 | 880 nM | 15 nM | Cc1ccccc1N1CCN(C(=O)N2CCc3cc(Cl)ccc32)CC1 | –
43 | 85 nM | 3 nM | Cc1ccccc1N1CCN(C(=O)N2CN(C)Cc3cc(Cl)ccc32)CC1 | –
44 | 35 nM | 4 nM | Cc1ccccc1N1CCN(C(=O)N2CN(C(=O)CO)Cc3cc(Cl)ccc32)CC1 | –
45 | 200 nM | 4 nM | Cc1ccccc1N1CCN(C(=O)N2CCCc3cc(Cl)ccc32)CC1 | –
